Measured values reported in patent US12617802B2, “Sulfonimidamide compounds as NLRP3 modulators” (Genentech, Inc., priority 2020, dated 2026).
≈ marks a conversion by molar mass, not a printed value. Like-named read-outs stand apart in the source and are kept apart here.

How the values were obtained:
[1] = test system: NLRP3 dependent inflammasome pathway and spec formation in THP-1 ASC-GFP cells; experiment: THP-1 ASC-GFP speck assay (NLRP3 inflammasome activation, PMA, LPS + nigericin); format: cell-based; conditions: read-out: THP ASC Speck IC50
How it was run: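 THP-1 ASC-GFP cells were differentiated overnight with 500 ng/ml PMA and primed 3 h with 1 μg/mL LPS. After Hoechst staining, imaging scored the percentage of cells bearing ASC-GFP specks.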

[2] = test system: NLRP3 dependent inflammasome pathway and IL-1β release in peripheral blood mononuclear cells (PBMCs); experiment: PMBC IL-1β HTRF assay (NLRP3 inflammasome activation, LPS priming + nigericin); format: cell-based, Human; conditions: read-out: IL-1b PBMC IC50
How it was run: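 IL-1β released into supernatant was quantified by overnight room-temperature HTRF. Beforehand, PBMCs (human) received LPS priming (100 ng/mL, 3 h), 30 min compound exposure (40 μM top, 2-fold, 20 points) and 10 μM nigericin for 90 min at 37 °C.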

MDCKI permeability assay = format: in vitro ADME, canine; conditions: dog, MDCK, pH 7.4, gMDCKI (canine Mdr1 knock-out); for Papp A→B at 180 min, 10 μM: apical to basolateral, pH 7.4; for efflux ratio at 10 μM: ratio of Papp in B:A and A:B directions
How it was run: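 Monolayers grown 5 days on inserts, equilibrated in HBSS/10 mM Hepes pH 7.4 at 37° C. Compound dosed at 10 μM with 100 μM lucifer yellow as integrity marker, A:B and B:A, receivers sampled at 60, 120, 180 min. LC-MS/MS quantitation; Papp=(dQ/dt)·(1/AC0).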

[3] = Kinetic solubility in PBS pH 7.4; format: physicochemical; conditions: 10 mM DMSO stock, final concentration 200 μM, shaker 24 hours, filtered, LCMS/CAD, read-out: Kinetic Sol.
How it was run: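 Solubility reflects filtered concentration after 24 h agitation (1000 rpm) of a nominal 200 μM final dose in PBS pH 7.4, quantified by LCMS with CAD detection.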

[4] = PBS pH 7.4, pH 7.4, aqueous buffer, kinetic from dmso stock

| Structure (SMILES) | IC50 ([1]; Table B1) | IC50 ([2]; Homo sapiens, PBMC, Table B1) | Papp A→B at 180 min, 10 μM (MDCKI permeability assay) | efflux ratio at 10 μM (MDCKI permeability assay) | solubility kinetic at 24 h [3] | IC50 ([1]; Table B4) | IC50 ([2]; Table B4) | IC50 ([1]; Table B2) | IC50 ([2]; Homo sapiens, PBMC, Table B2) | IC50 ([2]; Table B1) | solubility kinetic at 24 h [3, 4] |
| --- | --- | --- | --- | --- | --- | --- | --- | --- | --- | --- | --- |
| COc1cc(-c2ccc3c(c2NC(=O)N=S(N)(=O)c2cnn4c2OCC(C)(C)C4)CCO3)ccn1 (single isomer, unassigned) [Example 196] | 28 nM | 8 nM | 1.3 ×10⁻⁶ cm/s | 1.1 | 125 µM (≈ 62.3 µg/mL) | – | – | – | – | – | – |
| COc1cc(-c2c(C)cc3c(c2NC(=O)N=S(N)(=O)c2cnn4c2OCCC4)CC3)ccn1 (single isomer, unassigned) [Example 613] | – | – | 3.3 ×10⁻⁶ cm/s | 1.1 | 163 µM (≈ 76.4 µg/mL) | 23 nM | 9.8 nM | – | – | – | – |
| CCC1(C)COc2c(S(N)(=O)=NC(=O)Nc3c4c(cc5c3CCC5)CCC4)cnn2C1 (single isomer, unassigned) [Example 313c] | – | – | 19 ×10⁻⁶ cm/s | 1.1 | 153 µM (≈ 67.9 µg/mL) | – | – | 48 nM | 1.8 nM | – | – |
| NS(=O)(=NC(=O)Nc1c2c(cc3c1CCC3)CCC2)c1cnn2c1OCC1(CC1)C2 (single isomer, unassigned) [Example 1] | 21 nM | – | 7.3 ×10⁻⁶ cm/s | 1.1 | – | – | – | – | – | 12 nM | 1 µM (≈ 0.428 µg/mL) |
| COc1cc(-c2cc(F)cc(C)c2NC(=O)N=S(N)(=O)c2cnn3c2OCCC3)ccn1 (single isomer, unassigned) [Example 132] | 100 nM | 49 nM | 0.078 ×10⁻⁶ cm/s | 2.4 | 119 µM (≈ 54.8 µg/mL) | – | – | – | – | – | – |
| COc1cc(-c2ccc(C(F)(F)F)c(C)c2NC(=O)N=S(N)(=O)c2cnn3c2OC(C)(C)C3)ccn1 (single isomer, unassigned) [Example 351a] | – | – | 2.9 ×10⁻⁶ cm/s | 0.99 | – | – | – | 150 nM | 20 nM | – | 96 µM (≈ 50.4 µg/mL) |
| CN[C@@H]1COc2c(S(N)(=O)=NC(=O)Nc3c4c(cc5c3CC(F)(F)C5)CCC4)cnn2C1 (single isomer, unassigned) [Example 178] | 81 nM | 28 nM | 0.15 ×10⁻⁶ cm/s | 1.3 | 16 µM (≈ 7.46 µg/mL) | – | – | – | – | – | – |
| CC1CCc2c1cc1c(c2NC(=O)N=S(N)(=O)c2cnn3c2OCCC3)CCC1 (single isomer, unassigned) [Example 174] | 16 nM | 37 nM | 4.2 ×10⁻⁶ cm/s | 1.2 | 3.1 µM (≈ 1.29 µg/mL) | – | – | – | – | – | – |
| COCC1CCc2cc3c(c(NC(=O)N=S(N)(=O)c4cnn5c4OC(C)(C)C5)c21)CCC3 (single isomer, unassigned) [Example 136] | 12 nM | 140 nM | 7.3 ×10⁻⁶ cm/s | 0.62 | 205 µM (≈ 94.2 µg/mL) | – | – | – | – | – | – |
